Measured values from patent publication US11040958B2, “Triazole antimicrobial derivative, pharmaceutical composition and use thereof” (priority 2017, dated 2021).
Read-outs that look alike come from different tables or passages of the source.

Key:
[1] = Solid stability test (25°C, RH 60%, 30 days); type: physicochemical; details: 25°C±2°C, relative humidity 60%±2%
Description: Experimental conditions: 25° C.±2° C., relative humidity 60%±2%
Experimental instrument: Agilent 1260 HPLC; chamber for stability test
Experimental method: each compound of the present disclosure was packaged (the inner packaging material was a penicillin bottle; the outer packaging material was a double-layer aluminum foil bag, and a desiccant was added inside and outside the package), placed in the chamber for stability test, at a temperature of 25° C.±2° C. and a relative humidity of 60%±2%. The degradation situation of the compounds for 30 days was examined. The contents of total impurities before and after 30 days of each compound were compared and the results were as follows: […]

[2] = Solubility test in deionized water (HPLC, external calibration); type: physicochemical; details: for solubility at 30 min: 25 °C, thermodynamic from solid
Description: Experimental condition: 25±2° C.
Dissolving medium: deionized water
Experimental method: 1 mg voriconazole and appropriate amount of each compound were weighed, placed in 1 ml deionized water separately, shaken vigorously for 30 s every 5 mins for 30 mins.

[3] = Pharmacokinetics after single intravenous administration in rats (plasma voriconazole); details: for T1/2 / AUClast: rat, in vivo, 2.5 mg/kg
Description: Dosage for administration: 2.5 mg/kg (calculated as voriconazole)
Dosing volume for administration: 2.5 ml/kg
Drug concentration: 1 mg/mL (calculated as voriconazole)
Route of administration: tail vein injection Experimental animals: SD rats, SPF grade, weighing 180-220 g, half male and half female; the SD rats were randomized into groups of 6 animals each, three males and three females in each group. Experimental method: Blood samples were collected at different time points after tail vein administration, and the plasma concentrations of voriconazole were measured.

[4] = system: Candida albicans ATCC10231; assay: Systemic fungal infection in mice, intravenous administration, survival; type: in vivo; details: ICR mice, tail vein, 5 mg/kg (calculated as voriconazole) once daily for 5 days
Description: ICR mice, weighing 18-22 g, male, provided by the Hubei Experimental Animal Center.
The standard strain Candida albicans was purchased from the American Type Culture Collection, and the strain number was ATCC10231.
Before the experiment, a small amount of Candida albicans was picked from the SDA medium preserved at 4° C. by inoculation circle, and inoculated into 1 ml YPD (Yeast Extract Peptone Dextrose Medium, the same below) culture medium, under shake cultivation at 30° C., 200 rpm, activated for 16 hours to make the fungus in the late stage of the exponential growth phase. Blood cell counting plate was used to count. The concentration of the broth was adjusted to 1*10^3-5*10^3 CFU/ml with RPMI1640 (Roswell Park Memorial Institute 1640, the same below) culture medium. The Candida albicans monoclone on the SDA plate was picked and inoculated into 1 ml YPD medium, cultured at 35° C., 200 rpm for 16 hours to the late exponential growth phase, 1% of which was then inoculated in fresh medium for 6 hours, centrifuged at 1000×g for 5 mins, washed three times with saline until the supernatant was colorless, while hemocytometer was used to count. The cell concentration was adjusted to 5*10^6/ml. The tail vein injection of 0.1 ml/10 g was carried out to cause a systemic fungal infection in mice. The mice were randomized into groups of 10 each. Since voriconazole was insoluble in vehicle (physiological saline), the mice of the voriconazole group in the test were injected a commercially available voriconazole (Pfizer, product lot number Z467001), that is, sulfobutyl ether-β-cyclodextrin used as a solubilizer, while other groups used physiological saline as a solvent. After establishing a systemic fungal infection model in mice for 2 hours, each administration group was administered with 5 mg/kg (calculated as voriconazole) drug in the tail vein, with the volume for administration of 0.1 ml/10 g. The mice in the model group were administered 0.1 ml/10 g of 0.9% sodium chloride solution, once daily, for 5 consecutive days. The death situation of the mice was inspected and the survival time was recorded. After a total of 7 days of observation, all dead mice were treated with fire using ethanol.

Compound | Content increase of total impurity (25° C., placed for 30 days) [1] | Solubility ([2]; deionized water, 25±2°C) | T1/2 [3] | other results
CC(OC(=O)OCCS)[n+]1cnn(C[C@](O)(c2ccc(F)cc2F)[C@@H](C)c2ncncc2F)c1 (some centres unmarked) [Compound 16031] | 0.97% | – | – | –
CC(OC(=O)N(C)c1ncccc1COC(=O)C[C@H](N)C(=O)O)[n+]1cnn(C[C@](O)(c2ccc(F)cc2F)[C@@H](C)c2ncncc2F)c1.[Cl-] (some centres unmarked) [QR16003] | 1.37% | >50 mg/mL | similar | –
CC(OC(=O)N(C)c1ncccc1COC(=O)CCC(=O)[O-])[n+]1cnn(C[C@](O)(c2ccc(F)cc2F)[C@@H](C)c2ncncc2F)c1.[Cl-].[Na+] (some centres unmarked) [QR16004] | – | >50 mg/mL | – | AUClast [3]: 9586 ± 2352 ng·h/mL; survival rate of mice, day 1 ([4]; day 1): 100%; survival rate of mice, day 2 ([4]; day 2): 100%; survival rate of mice, day 3 ([4]; day 3): 100%; survival rate of mice, day 4 ([4]; day 4): 90%; survival rate of mice, day 5 ([4]; day 5): 90%; survival rate of mice, day 6 ([4]; day 6): 80%
CC(OC(=O)N(C)c1ncccc1COC(=O)[C@@H](N)CCCN)[n+]1cnn(C[C@](O)(c2ccc(F)cc2F)[C@@H](C)c2ncncc2F)c1.Cl.Cl.Cl.[I-] (some centres unmarked) [QR16006] | 1.14% | >50 mg/mL | – | –
CC(OC(=O)N(C)c1ncccc1COC(=O)[C@@H](N)CCCN)[n+]1cnn(C[C@](O)(c2ccc(F)cc2F)[C@@H](C)c2ncncc2F)c1.O=P([O-])(O)O (some centres unmarked) [QR16011] | 0.96% | >50 mg/mL | – | –
CC(OC(=O)N(C)c1ncccc1COC(=O)[C@@H](N)CCCN)[n+]1cnn(C[C@](O)(c2ccc(F)cc2F)[C@@H](C)c2ncncc2F)c1.O=[N+]([O-])[O-] (some centres unmarked) [QR16012] | 0.92% | >50 mg/mL | – | –
CC(OC(=O)N(C)c1ncccc1COC(=O)C(N)Cc1ccc(O)cc1)[n+]1cnn(CC(O)(c2ccc(F)cc2F)C(C)c2ncncc2F)c1.Cl.Cl.[Cl-] (centres unmarked) [QR16018] | 1.15% | >50 mg/mL | – | –
CNCCC[C@H](N)C(=O)OCc1cccnc1N(C)C(=O)OC(C)[n+]1cnn(C[C@](O)(c2ccc(F)cc2F)[C@@H](C)c2ncncc2F)c1.[Cl-] (some centres unmarked) [QR16019] | 0.88% | >50 mg/mL | – | –
CNCC[C@H](N)C(=O)OCc1cccnc1N(C)C(=O)OC(C)[n+]1cnn(C[C@](O)(c2ccc(F)cc2F)[C@@H](C)c2ncncc2F)c1 (some centres unmarked) [QR16021] | 1.14% | – | – | solubility at 30 min ([2]; deionized water, 25±2°C): > 50 mg/mL; AUClast ([3]; both, SD, iv): 7056 ± 2532 ng·h/mL
CC(OC(=O)OCCCCOP(=O)(O)O)[n+]1cnn(C[C@](O)(c2ccc(F)cc2F)[C@@H](C)c2ncncc2F)c1 (some centres unmarked) [QR16024] | 2.84% | >50 mg/mL | similar | –
CC(OC(=O)OCCCCCOP(=O)(O)O)[n+]1cnn(C[C@](O)(c2ccc(F)cc2F)[C@@H](C)c2ncncc2F)c1 (some centres unmarked) [QR16025] | 1.57% | >50 mg/mL | similar | –
CC(OC(=O)OCCOCCOCCOP(=O)(O)O)[n+]1cnn(C[C@](O)(c2ccc(F)cc2F)[C@@H](C)c2ncncc2F)c1 (some centres unmarked) [QR16033] | – | >50 mg/mL | similar | –
CC(OC(=O)SC[C@H](N)C(=O)O)[n+]1cnn(C[C@](O)(c2ccc(F)cc2F)[C@@H](C)c2ncncc2F)c1 (some centres unmarked) [QR16034] | – | – | similar | Solubility [2]: 12.5 mg/mL
CC(OC(=O)NCC(=O)O)[n+]1cnn(C[C@](O)(c2ccc(F)cc2F)[C@@H](C)c2ncncc2F)c1 (some centres unmarked) [QR16038] | – | – | similar | –
CC(OC(=O)NCC[C@H](N)C(=O)O)[n+]1cnn(C[C@](O)(c2ccc(F)cc2F)[C@@H](C)c2ncncc2F)c1.Cl.[Cl-] (some centres unmarked) [QR16039] | 1.22% | – | similar | –
C[C@@H](c1ncncc1F)[C@](O)(Cn1c[n+](CC(=O)O)cn1)c1ccc(F)cc1F [QR16043] | – | – | similar | –
CC(OC(=O)OCCOP(=O)(O)O)[n+]1cnn(C[C@](O)(c2ccc(F)cc2F)[C@@H](C)c2ncncc2F)c1 (some centres unmarked) [QR16046] | 0.79% | – | – | solubility at 30 min ([2]; deionized water, 25±2°C): > 50 mg/mL
CC(OC(=O)N(C)c1ncccc1COC(=O)CN)[n+]1cnn(C[C@](O)(c2ccc(F)cc2F)[C@@H](C)c2ncncc2F)c1.O=S(=O)([O-])O (some centres unmarked) [SF16001] | 0.37% | >50 mg/mL | – | –
CC(OC(=O)N(C)c1ncccc1COC(=O)[C@@H](N)CCCN)[n+]1cnn(C[C@](O)(c2ccc(F)cc2F)[C@@H](C)c2ncncc2F)c1 (some centres unmarked) [SF16002] | 0.67% | – | – | solubility at 30 min ([2]; deionized water, 25±2°C): > 50 mg/mL
CC(OC(=O)N(C)c1ncccc1COC(=O)[C@@H](N)CCC(N)=O)[n+]1cnn(C[C@](O)(c2ccc(F)cc2F)[C@@H](C)c2ncncc2F)c1.O=S(=O)([O-])O (some centres unmarked) [SF16013] | 0.48% | – | – | –
CC(OC(=O)N(C)c1ncccc1COC(=O)[C@@H](N)CC(N)=O)[n+]1cnn(C[C@](O)(c2ccc(F)cc2F)[C@@H](C)c2ncncc2F)c1.O=S(=O)([O-])O (some centres unmarked) [SF16014] | 0.36% | – | – | –
CC(OC(=O)N(C)c1ncccc1COC(=O)[C@@H](N)CO)[n+]1cnn(C[C@](O)(c2ccc(F)cc2F)[C@@H](C)c2ncncc2F)c1.O=S(=O)([O-])O (some centres unmarked) [SF16015] | 0.32% | – | – | –
CC(OC(=O)N(C)c1ncccc1COC(=O)[C@@H](N)[C@@H](C)O)[n+]1cnn(C[C@](O)(c2ccc(F)cc2F)[C@@H](C)c2ncncc2F)c1.O=S(=O)([O-])O (some centres unmarked) [SF16016] | 0.49% | – | – | –
CC(OC(=O)N(C)c1ncccc1COC(=O)[C@@H](N)CCCCN)[n+]1cnn(C[C@](O)(c2ccc(F)cc2F)[C@@H](C)c2ncncc2F)c1 (some centres unmarked) [SF16017] | 0.46% | – | – | –
CNCC(=O)OCc1cccnc1N(C)C(=O)OC(C)[n+]1cnn(C[C@](O)(c2ccc(F)cc2F)[C@@H](C)c2ncncc2F)c1.O=S(=O)([O-])O (some centres unmarked) [SF16020] | 0.62% | – | – | –
C[C@@H](c1ncncc1F)[C@](O)(Cn1cncn1)c1ccc(F)cc1F [Voriconazole, reference compound] | – | – | – | solubility at 30 min ([2]; deionized water, 25±2°C): < 1 mg/mL; plasma concentration of voriconazole ([3]; control group of voriconazole dissolved in physiological saline, tail vein injection, SD rats): not detected
